Reference: patent publication US10314313B2, “Antimicrobial materials exhibiting synergistic efficacy” (CORNING INCORPORATED, priority 2015, dated 2019)

Key:
marine organisms = conditions: cited from earlier work
bacteria = conditions: cited from earlier work
mold = experiment: Amount of biocide necessary to inhibit fungi growth, mold (FIG. 1); assay type: cell-based
Procedure: (§1) The amount of ZnPT and copper-containing glass necessary to inhibit fungi growth was evaluated.

fungi = conditions: alone
mildew = experiment: Amount of biocide necessary to inhibit fungi growth, mildew (FIG. 2); assay type: cell-based
Procedure: as §1

algae = conditions: in combination with Cu; cited from earlier work

Q: Which “toxicity to marine organisms” value (marine organisms) does the source give for `[O-][n+]1ccccc1[S][Cu][S]c1cccc[n+]1[O-]` [CuPT] here?
A: The value was “more toxic than ZnPT”.

Q: Which activity against bacteria (bacteria) does the source give for `N#Cc1c(-c2ccc(Cl)cc2)[nH]c(C(F)(F)F)c1Br` [Tralopyril, 4-bromo-2-(4-chlorophenyl)-5-(trifluoromethyl)-1H-pyrrole-3-carbonitrile] here?
A: The activity against bacteria was “not sufficient”.

Q: Which results are given for Zinc pyrithione [ZnPT]?
A: amount needed to reduce mold growth (mold): 10 g/gallon; inhibition of fungi (fungi): no inhibition of fungi; amount needed to reduce mildew growth (mildew): 100 g/gallon; algaecide activity, concentration range (algae): 1-100 ppm (μg/L)
